This is an account of results in US9663473B2 (Actelion Pharmaceuticals Ltd, priority 2013, dated 2017).

Usually EC50 stands for the midpoint of the concentration-response curve.

Counter-ions that a name gives are not always drawn.

For the assay, the target named is T1, recombinant human ALX receptor (Homo sapiens, UniProt P25090).
T1 construct: expressed in transfected cells; host or cells: HEK293 (HEK293-hALXR-Gα16)
T1 sequence (P25090 1-351): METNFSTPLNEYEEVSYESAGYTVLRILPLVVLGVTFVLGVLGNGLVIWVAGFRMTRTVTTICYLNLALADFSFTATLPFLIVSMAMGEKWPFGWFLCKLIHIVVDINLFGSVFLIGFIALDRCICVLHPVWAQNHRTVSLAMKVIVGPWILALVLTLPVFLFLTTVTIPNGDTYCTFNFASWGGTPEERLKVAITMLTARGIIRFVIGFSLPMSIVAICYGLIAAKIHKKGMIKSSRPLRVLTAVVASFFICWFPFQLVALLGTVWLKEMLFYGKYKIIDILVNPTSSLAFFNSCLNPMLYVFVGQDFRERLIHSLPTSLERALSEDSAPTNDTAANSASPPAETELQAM
In words: Intracellular calcium measurements (FLIPR), ALX receptor agonistic activity. The conditions noted are these: HEK293-hALXR-Gα16 cells, Fluo-4 calcium signal, normalized to WKYMVm 10 nM. It counts as cell-based. The method, boiled down:
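Agonist-induced calcium flux was read by FLIPR (488/540 nm) as baseline-subtracted peak emission, expressed relative to WKYMVm at 10 nM final. Cells used: HEK293-hALXR-Gα16, dye-loaded 60 min at 37° C. with 1 μM Fluo-4 AM before compound dose-response addition.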
On the technique in general: Calcium assays in cells follow changes in intracellular calcium, usually with a dye or a luminescent sensor.
For the compound `COC(=O)c1ccc(C2(NC(=O)N[C@H](Cc3ccc(OC)cc3)c3nc4ccccc4[nH]3)CC2)cc1` [Example 342, (R)-Methyl 4-(1-(3-(1-(1H-benzo[d]imidazol-2-yl)-2-(4-methoxyphenyl)ethyl)ureido)cyclopropyl)benzoate], the EC50 worked out at 277 nM.
As for `COc1ccc(C[C@@H](NC(=O)N2CCN(C(=O)OC(C)(C)C)CC2)c2nc3ccccc3[nH]2)cc1` [Example 130, (R)-tert-Butyl 4-((1-(1H-benzo[d]imidazol-2-yl)-2-(4-methoxyphenyl)ethyl)carbamoyl)piperazine-1-carboxylate], the figure is 1060 nM; as for `COc1ccc(C[C@@H](NC(=O)NC2CCNC(=O)C2)c2nc3ccccc3[nH]2)cc1` (stereo partly drawn) [Example 174, 1-((R)-1-(1H-Benzo[d]imidazol-2-yl)-2-(4-methoxyphenyl)ethyl)-3-(2-oxopiperidin-4-yl)urea], 288 nM; as for `COc1ccc(C[C@@H](NC(=O)NCCc2ccc(C)cc2)c2nc3ccccc3[nH]2)cc1` [Example 66, (R)-1-(1-(1H-Benzo[d]imidazol-2-yl)-2-(4-methoxyphenyl)ethyl)-3-(4-methylphenethyl)urea hydrochloride], 438 nM.
As for `COc1ccc(C[C@@H](NC(=O)N[C@H]2CC[C@H](O)CC2)c2nc3cc(Br)ccc3[nH]2)cc1` [Example 179, 1-((R)-1-(5-Bromo-1H-benzo[d]imidazol-2-yl)-2-(4-methoxyphenyl)ethyl)-3-(trans-4-hydroxycyclohexyl)urea], the figure is 1.1 nM.
Consider `COc1ccc(CC(NC(=O)N[C@H]2CC[C@H](O)CC2)c2nc3ccccc3[nH]2)c(F)c1F` (relative stereo) [Example 232, 1-(1-(1H-Benzo[d]imidazol-2-yl)-2-(2,3-difluoro-4-methoxyphenyl)ethyl)-3-(trans-4-hydroxycyclohexyl)urea], for which the EC50 is 2.6 nM.
Consider `COc1ccc(C[C@@H](NC(=O)NCCc2ccc(C)c(C)c2)c2nc3ccccc3[nH]2)cc1` [Example 275, (R)-1-(1-(1H-Benzo[d]imidazol-2-yl)-2-(4-methoxyphenyl)ethyl)-3-(3,4-dimethylphenethyl)urea], for which the EC50 is 126 nM.
As for `COc1ccc(C[C@@H](NC(=O)NC2CCN(CCF)CC2)c2nc3ccccc3[nH]2)cc1` [Example 181, (R)-1-(1-(1H-Benzo[d]imidazol-2-yl)-2-(4-methoxyphenyl)ethyl)-3-(1-(2-fluoroethyl)piperidin-4-yl)urea], the figure is 88 nM; as for `COc1ccc(CC(NC(=O)N[C@H]2CC[C@H](O)CC2)c2nc3ccccc3[nH]2)c(F)c1` (relative stereo) [Example 210, 1-(1-(1H-Benzo[d]imidazol-2-yl)-2-(2-fluoro-4-methoxyphenyl)ethyl)-3-(trans-4-hydroxycyclohexyl)urea], 1.9 nM.
As for `COc1ccc(C[C@@H](NC(=O)NC2CCCc3ccccc32)c2nc3ccccc3[nH]2)cc1` (stereo partly drawn) [Example 27, 1-((R)-1-(1H-Benzo[d]imidazol-2-yl)-2-(4-methoxyphenyl)ethyl)-3-(1,2,3,4-tetrahydronaphthalen-1-yl)urea], the figure is 26 nM.
As for `COc1ccc(C[C@@H](NC(=O)N[C@@H]2CC[C@H](O)C2)c2nc3ccccc3[nH]2)cc1` (relative stereo) [Example 171, 1-((R)-1-(1H-Benzo[d]imidazol-2-yl)-2-(4-methoxyphenyl)ethyl)-3-((1R*,3S*)-3-hydroxycyclopentyl)urea], the figure is 38 nM.
As to `O=C(NC(Cc1ccc(Br)c(F)c1)c1nc2ccccc2[nH]1)N[C@H]1CC[C@H](O)CC1` (single isomer, unassigned; ent-2) [Example 262, 1-(1-(1H-Benzo[d]imidazol-2-yl)-2-(4-bromo-3-fluorophenyl)ethyl)-3-(trans-4-hydroxycyclohexyl)urea (ent-2)], the EC50 was 11 nM.
As for `O=C(N[C@H](Cc1ccc(C(F)(F)F)cc1)c1nc2ccccc2[nH]1)NC12CCC(O)(CC1)CC2` [Example 255, (R)-1-(1-(1H-Benzo[d]imidazol-2-yl)-2-(4-(trifluoromethyl)phenyl)ethyl)-3-(4-hydroxybicyclo[2.2.2]octan-1-yl)urea], the figure is 27 nM; as for `COc1ccc(C[C@@H](NC(=O)Nc2c(-c3ccccc3)noc2C)c2nc3ccccc3[nH]2)cc1` [Example 213, (R)-1-(1-(1H-Benzo[d]imidazol-2-yl)-2-(4-methoxyphenyl)ethyl)-3-(5-methyl-3-phenylisoxazol-4-yl)urea], 53 nM; as for `COc1ccc(C[C@@H](NC(=O)N[C@H]2CC[C@](C)(O)CC2)c2nc3ccccc3[nH]2)cc1` [Example 173, 1-((R)-1-(1H-Benzo[d]imidazol-2-yl)-2-(4-methoxyphenyl)ethyl)-3-(trans-4-hydroxy-4-methylcyclohexyl)urea], 3.1 nM.
As for `COc1ccc(C[C@@H](NC(=O)N[C@H](C)c2ccc(F)cc2)c2nc3ccccc3[nH]2)cc1` [Example 320, 1-((R)-1-(1H-Benzo[d]imidazol-2-yl)-2-(4-methoxyphenyl)ethyl)-3-((R)-1-(4-fluorophenyl)ethyl)urea], the figure is 185 nM; as for `COc1ccc(CCNC(=O)N[C@H](Cc2ccc(OC)cc2)c2nc3ccccc3[nH]2)cc1` [Example 54, (R)-1-(1-(1H-Benzo[d]imidazol-2-yl)-2-(4-methoxyphenyl)ethyl)-3-(4-methoxyphenethyl)urea], 987 nM.
As for `COc1ccc(CC(C)(NC(=O)Nc2cc(C3CC3)nn2C)c2nc3ccccc3[nH]2)cc1` (stereo not drawn) [Example 422, 1-(2-(1H-benzo[d]imidazol-2-yl)-1-(4-methoxyphenyl)propan-2-yl)-3-(3-cyclopropyl-1-methyl-1H-pyrazol-5-yl)urea], the figure is 720 nM.
Turning to `COc1ccc(C[C@@H](NC(=O)NC2CCCC(C)C2)c2nc3ccccc3[nH]2)cc1` (stereo partly drawn) [Example 33, 1-((R)-1-(1H-Benzo[d]imidazol-2-yl)-2-(4-methoxyphenyl)ethyl)-3-(3-methylcyclohexyl)urea], the EC50 came to 130 nM.
In the case of `COc1ccc(CC(NC(=O)Nc2ncc(C)s2)c2nc3ccccc3[nH]2)cc1` (stereo not drawn) [Example 402, 1-(1-(1H-Benzo[d]imidazol-2-yl)-2-(4-methoxyphenyl)ethyl)-3-(5-methylthiazol-2-yl)urea], the EC50 was found to be 784 nM.
As for `CCOc1ccccc1CNC(=O)N[C@H](Cc1ccc(OC)cc1)c1nc2ccccc2[nH]1` [Example 60, (R)-1-(1-(1H-Benzo[d]imidazol-2-yl)-2-(4-methoxyphenyl)ethyl)-3-(2-ethoxybenzyl)urea hydrochloride], the figure is 161 nM.
As to `COc1ccc(C[C@@H](NC(=O)NCCc2cnccn2)c2nc3ccccc3[nH]2)cc1` [Example 285, (R)-1-(1-(1H-Benzo[d]imidazol-2-yl)-2-(4-methoxyphenyl)ethyl)-3-(2-(pyrazin-2-yl)ethyl)urea], the EC50 came to 284 nM.
As for `COC[C@H](Cc1ccccc1)NC(=O)N[C@H](Cc1ccc(OC)cc1)c1nc2ccccc2[nH]1` [Example 204, 1-((R)-1-(1H-Benzo[d]imidazol-2-yl)-2-(4-methoxyphenyl)ethyl)-3-((S)-1-methoxy-3-phenylpropan-2-yl)urea], the figure is 5 nM; as for `COc1cc(F)c(CC(NC(=O)NC23CCC(O)(CC2)CC3)c2nc3ccccc3[nH]2)c(F)c1` (stereo not drawn) [Example 248, 1-(1-(1H-Benzo[d]imidazol-2-yl)-2-(2,6-difluoro-4-methoxyphenyl)ethyl)-3-(4-hydroxybicyclo[2.2.2]octan-1-yl)urea], 4.5 nM; as for `COc1ccc(C[C@@H](NC(=O)N[C@H]2CC[C@H](C(=O)OC)CC2)c2nc3ccccc3[nH]2)cc1` [Example 224, trans-Methyl 4-(3-((R)-1-(1H-benzo[d]imidazol-2-yl)-2-(4-methoxyphenyl)ethyl)ureido)cyclohexanecarboxylate], 8.2 nM.
As for `COc1ccc(C[C@@H](NC(=O)NCC2CCN(C(=O)OC(C)(C)C)CC2)c2nc3ccccc3[nH]2)cc1` [Example 146, (R)-tert-Butyl 4-((3-(1-(1H-benzo[d]imidazol-2-yl)-2-(4-methoxyphenyl)ethyl)ureido)methyl)piperidine-1-carboxylate], the figure is 512 nM; as for `COc1ccc(C2(C(NC(=O)N[C@H]3CC[C@H](O)CC3)c3nc4ccccc4[nH]3)CC2)cc1` (relative stereo) [Example 2, 1-((1H-Benzo[d]imidazol-2-yl)(1-(4-methoxyphenyl)cyclopropyl)methyl)-3-(trans-4-hydroxycyclohexyl)urea], 81 nM.
With “1-(1-(1H-Benzo[d]imidazol-2-yl)-2-(3,5-difluoro-4-methoxyphenyl)ethyl)-3-(4-hydroxybicyclo[2.2.2]octan-1-yl)urea [Example 242]”, the EC50 amounted to 70 nM.
On to `COc1ccc(C[C@@H](NC(=O)N2CC3CCC2CN3C(=O)OC(C)(C)C)c2nc3ccccc3[nH]2)cc1` (stereo partly drawn) [Example 112, tert-Butyl 5-(((R)-1-(1H-benzo[d]imidazol-2-yl)-2-(4-methoxyphenyl)ethyl)carbamoyl)-2,5-diazabicyclo[2.2.2]octane-2-carboxylate], for which the EC50 came out at 109 nM.
As for `COc1ccc(C[C@@H](NC(=O)NCCc2cccc(OC)c2)c2nc3ccccc3[nH]2)cc1` [Example 6, (R)-1-(1-(1H-Benzo[d]imidazol-2-yl)-2-(4-methoxyphenyl)ethyl)-3-(3-methoxyphenethyl)urea], the figure is 378 nM.
